Test results taken from publication PMC12366525, “Characterization of allosteric modulators that disrupt androgen receptor co-activator protein-protein interactions to alter transactivation–Drug leads for metastatic castration resistant prostate cancer” (SLAS discovery : advancing life sciences R & D, 2023).
Entries after “also recorded” stand apart in the source; their conditions may differ.

Tests used:
AR = target: T1, AR (Homo sapiens, UniProt P10275, T878A); test: Western blotting cellular thermal shift assay for AR in C4–2 cells; assay type: cell-based; conditions: 1 h at 37 °C prior to heat shock at 46 °C, hits and enzalutamide 20 μM, DHT 10 nM
T1 construct: DHT-induced full length AR directed TA; endogenous in cells; host or cells: C4–2 castration resistant prostate cancer cells
T1 sequence (P10275 1-920 T878A): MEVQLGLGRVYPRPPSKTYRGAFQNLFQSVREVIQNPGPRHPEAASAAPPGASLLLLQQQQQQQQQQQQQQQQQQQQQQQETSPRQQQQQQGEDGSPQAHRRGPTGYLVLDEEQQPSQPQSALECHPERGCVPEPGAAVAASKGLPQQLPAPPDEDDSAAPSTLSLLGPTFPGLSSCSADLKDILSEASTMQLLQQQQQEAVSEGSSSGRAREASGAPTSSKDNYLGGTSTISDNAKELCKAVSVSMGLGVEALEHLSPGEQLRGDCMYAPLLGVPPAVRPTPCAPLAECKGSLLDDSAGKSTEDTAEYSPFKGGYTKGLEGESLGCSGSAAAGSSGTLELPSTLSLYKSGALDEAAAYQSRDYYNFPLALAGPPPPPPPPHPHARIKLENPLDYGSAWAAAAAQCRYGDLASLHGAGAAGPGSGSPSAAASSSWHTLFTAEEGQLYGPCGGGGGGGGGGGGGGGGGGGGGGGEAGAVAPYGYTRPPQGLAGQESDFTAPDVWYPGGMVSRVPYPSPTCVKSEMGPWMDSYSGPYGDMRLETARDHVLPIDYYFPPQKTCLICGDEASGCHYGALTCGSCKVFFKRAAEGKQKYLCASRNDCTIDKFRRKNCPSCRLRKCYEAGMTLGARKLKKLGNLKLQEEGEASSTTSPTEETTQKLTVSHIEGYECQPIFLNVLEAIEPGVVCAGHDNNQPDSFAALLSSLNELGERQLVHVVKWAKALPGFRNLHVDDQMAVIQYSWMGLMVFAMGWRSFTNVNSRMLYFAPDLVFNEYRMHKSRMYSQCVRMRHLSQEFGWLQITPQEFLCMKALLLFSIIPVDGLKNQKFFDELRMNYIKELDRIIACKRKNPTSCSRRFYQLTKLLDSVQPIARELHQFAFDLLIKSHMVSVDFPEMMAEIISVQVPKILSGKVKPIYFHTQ
Method: C4–2 cells were harvested by trypsinization, washed 1x by centrifugation at 270 × g for 5 min and resuspension in PBS, counted, centrifugated at 270 × g for 5 min and resuspended at 7 × 10 [6] cells per mL in Opti-MEM medium (Gibco, Gaithersburg, MD). 50 μL of C4–2 cell suspension (3.5 × 10 [5] cells) were then transferred to PCR tubes that were placed in a T-100 thermocycler (BioRad, Hercules, CA) and a 2 °C interval temperature step gradient from 37 °C to 53 °C was applied. Cells were maintained at each step of the temperature gradient for 5 min and then tubes were withdrawn and placed on ice. 50 μL of cell lysis buffer, 500 mM NaCl, 1% NP-40, 1x protease inhibitor cocktail in PBS were added to the heat shocked cell suspensions in PCR tubes and placed on ice for an additional 30 min. […] 45 μL of cell lysis supernatants were mixed with 15 μL of 5x SDS-PAGE sample buffer and placed in a heat block at 100 °C for 5 min. The protein constituents of heat shocked C4–2 cell lysis supernatants were separated by SDS-PAGE on 8% separating gels, transferred to nitrocellulose membranes that were blocked for 1 h at room temperature in 5% non-fat milk in TBST, and then probed overnight at 4 °C with a 1:1000 dilution of either rabbit anti-AR (Cell Signaling, Danvers, MA) or rabbit anti-TIF2 (Bethyl Laboratories, Waltham, MA) primary antibodies in TBST containing 5% non-fat milk. Membranes were then washed 3x in TBST buffer for 10 min, then incubated with a 1:10,000 dilution of the goat anti-rabbit IgG HRP conjugated secondary antibody (Invitrogen, Carlsbad,CA) in TBST containing 5% non-fat milk for 1 h at room temperature. Western blots were then washed 3x in TBST buffer and developed with Pierce ECL western blotting substrate. Images of ECL western blots were acquired on an iBright 1500 imaging system and quantified using the iBright image analysis software.

HEK 293 cells = test: M2H viability counter screen; assay type: cell-based; conditions: cytotoxicity counter screen; read-out: M2H viability CS GI50

Row | Compound | Effect on AR thermal stability, western blot CETSA (AR) | GI50 (HEK 293 cells) [µM]
1 | Cc1ccccc1-c1cc(O)c2c(c1)CN(c1nc(C(N)=O)cs1)CCO2 [S1–1] | did not stabilize AR, but blocked DHT-enhanced AR stabilization; also recorded: only partially blocked DHT-enhanced AR stabilization | –
2 | Cc1ccccc1-c1cc(O)c2c(c1)CN(c1nccs1)CCO2 [S1–3] | – | > 100
3 | Cc1nsc(NC(=O)N2CCC(Sc3ccccc3C)CC2)n1 [S2–6] | did not stabilize AR, but blocked DHT-enhanced AR stabilization; also recorded: blocked DHT-enhanced AR thermal stabilization below DMSO baseline levels | –
4 | Cc1c(-c2ccccc2F)[nH]c2ccc(CNC(=O)CCc3cn[nH]c3)cc12 [S3–11] | did not stabilize AR, but blocked DHT-enhanced AR stabilization; also recorded: only partially blocked DHT-enhanced AR stabilization | –
